{"source": "paper PMC11796312", "about": "“Multifunctional, Fluorene‐Based Modulator of Cholinergic and GABAergic Neurotransmission as a Novel Drug Candidate for Palliative Treatment of Alzheimer's Disease” (Angewandte Chemie (International Ed. in English), 2024)", "system": "mice", "test": "Four-plate test (FPT)", "assay_type": "in vivo", "conditions": "0.1, 1 and 10 mg/kg i.p., vs control", "experimental": "Animals and housing conditions\nIn all pharmacodynamic in vivo experiments, except for the Barnes maze (BM) task, adult male Albino Swiss (CD-1) mice weighing between 18 and 22 g and purchased from the Animal Breeding Farm of the Faculty of Pharmacy, Jagiellonian University Medical College were used. In BM task, C57BL/6J mice of the same weight (Animalab, Poland) were used.\nAnimals were housed in cages (10 mice per cage) at a constant temperature of 22 ± 2 °C, humidity of 55 ± 10%, and a light/dark (12:12) cycle (lights on at 7 AM). Before the experiments, the animals had unlimited access to food and water. […]\nBriefly, mice were individually placed in a glass cylinder (25 cm high, 10 cm in diameter) containing 11 cm of water maintained at 23–25 °C and were left therein for 6 min. […] The total duration of immobility was measured during the final 4 min of a 6-min test session. […]\nThe four-plate apparatus (FPT; Bioseb, France) consists of a cage (25 × 18 × 16 cm) that is floored with four rectangular metal plates (11 × 8 cm). […] The number of punished crossings was counted […]\nof the closed arms. […] The following parameters were measured in this test: time spent in open arms of the EPM device and the number of entries to open arms. […]", "note": "Entries after “also recorded” stand apart in the source; their conditions may differ."}
{"smiles": "O[C@H](CNCC1CC1)[C@H](Cc1ccccc1)NC1c2ccccc2-c2ccccc21", "note": "[Compound 6]", "values": [{"measurement": "number of punished crossings", "result": "increased the number of punished crossings; also recorded: statistically significant increase in the number of punished crossings"}]}
